The text below walks through data of the OligoGym collection.

The target in one series is UBE2H. In words: reporter assay of Huesken 2005. The conditions noted are these: siRNA.
The next series has as its target UFC1. As to the kind of experiment: reporter assay of Huesken 2005. The following applies: siRNA. A general note: Reporter assays use an easily measured gene product as a stand-in for the process of interest.

Oligonucleotides are written 5' to 3', each unit as a sugar letter and its base; * is a phosphorothioate linkage, no mark a phosphodiester; rarer units and linkages stand in square brackets, end groups in braces. Plain capitals give the bases only. d = 2'-deoxy (DNA); r = 2'-OH (RNA)
Also: test concentration or dose not given here.

On to “sense rArUrArGrGrArUrUrCrArUrGrArArUrArArArAdTdT / antisense rUrUrUrUrArUrUrCrArUrGrArArUrCrCrUrArUdAdG”, for which the normalised inhibition (eCFP-eYFP dual reporter) in the series with UBE2H amounted to 106%. For the substance “sense rGrArCrGrCrUrGrCrArGrCrCrArUrGrUrArCrCdTdT / antisense rGrGrUrArCrArUrGrGrCrUrGrCrArGrCrGrUrCdAdC”, the normalised inhibition (eCFP-eYFP dual reporter) with UBE2H was 55.3%. The same measure, in the same setting: the value for “sense rArUrGrArGrGrUrUrArCrGrArUrCrCrUrGrGrGdTdT / antisense rCrCrCrArGrGrArUrCrGrUrArArCrCrUrCrArUdGdT” was 77.7%; that for “sense rArUrArCrCrCrUrUrUrCrArArArUrCrUrCrCrAdTdT / antisense rUrGrGrArGrArUrUrUrGrArArArGrGrGrUrArUdTdT” was 99.2%; that for “sense rArArArGrUrUrArGrArGrUrGrGrArCrCrUrArCdTdT / antisense rGrUrArGrGrUrCrCrArCrUrCrUrArArCrUrUrUdCdC” was 50%.

Consider “sense rCrArGrArArArArUrUrArArArGrArGrUrArCrAdTdT / antisense rUrGrUrArCrUrCrUrUrUrArArUrUrUrUrCrUrGdCdT”, for which, in the series with UBE2H, the normalised inhibition (eCFP-eYFP dual reporter) was determined as 78.6%.

Consider “sense rGrArArUrArCrArArGrCrArGrArArArArUrUrAdTdT / antisense rUrArArUrUrUrUrCrUrGrCrUrUrGrUrArUrUrCdTdT”, for which, in the series with UBE2H, the normalised inhibition (eCFP-eYFP dual reporter) is 93.1%. Same read-out and setting: the value for “sense rCrArGrGrArArGrArGrGrGrUrArCrCrGrGrGrGdTdT / antisense rCrCrCrCrGrGrUrArCrCrCrUrCrUrUrCrCrUrGdTdT” was 74.7%.

In the case of “sense rGrUrGrGrArCrCrUrArCrCrUrGrArUrArArArUdTdT / antisense rArUrUrUrArUrCrArGrGrUrArGrGrUrCrCrArCdTdC”, the normalised inhibition (eCFP-eYFP dual reporter) in the series with UBE2H is 77.9%.

With “sense rCrArUrGrArArUrArArArArUrUrUrUrCrCrArUdTdT / antisense rArUrGrGrArArArArUrUrUrUrArUrUrCrArUrGdAdA”, the normalised inhibition (eCFP-eYFP dual reporter) in the series with UBE2H came to 64%.

Consider “sense rArUrUrUrGrArGrUrCrCrUrUrCrCrUrGrCrCrUdTdT / antisense rArGrGrCrArGrGrArArGrGrArCrUrCrArArArUdAdT”, for which the normalised inhibition (eCFP-eYFP dual reporter) with UBE2H was 48.2%. On the same count and under the same terms, as for “sense rUrGrUrArGrUrGrArArGrUrUrUrUrArUrGrGrAdTdT / antisense rUrCrCrArUrArArArArCrUrUrCrArCrUrArCrAdAdA”, the figure is 75.6%; as for “sense rCrArArUrArUrArUrUrUrGrArGrUrCrCrUrUrCdTdT / antisense rGrArArGrGrArCrUrCrArArArUrArUrArUrUrGdGdT”, 84.2%; as for “sense rArGrGrUrUrArCrGrArUrCrCrUrGrGrGrArGrGdTdT / antisense rCrCrUrCrCrCrArGrGrArUrCrGrUrArArCrCrUdCdA”, 84.1%. As for “sense rGrGrUrGrArCrGrCrUrGrCrArGrCrCrArUrGrUdTdT / antisense rArCrArUrGrGrCrUrGrCrArGrCrGrUrCrArCrCdAdT”, the normalised inhibition (eCFP-eYFP dual reporter) with UBE2H was found to be 91%. On the same count and under the same terms, as for “sense rUrArCrCrArArUrArUrArUrUrUrGrArGrUrCrCdTdT / antisense rGrGrArCrUrCrArArArUrArUrArUrUrGrGrUrAdAdG”, the figure is 48.6%.

As to “sense rArGrArGrGrGrUrArCrCrGrGrGrGrArCrArGrCdTdT / antisense rGrCrUrGrUrCrCrCrCrGrGrUrArCrCrCrUrCrUdTdC”, in the series with UBE2H, the normalised inhibition (eCFP-eYFP dual reporter) stood at 65%.

Take “sense rUrGrUrArCrCrUrCrCrArCrCrGrArCrCrArGrAdTdT / antisense rUrCrUrGrGrUrCrGrGrUrGrGrArGrGrUrArCrAdTdG”: the normalised inhibition (eCFP-eYFP dual reporter) with UBE2H came out at 95.7%. Still for that read-out and setting: the value for “sense rArGrGrArArCrUrGrUrGrUrGrUrCrUrArGrArUdTdT / antisense rArUrCrUrArGrArCrArCrArCrArGrUrUrCrCrUdGdA” was 100%.

In the case of “sense rGrArArCrUrGrUrGrUrGrUrCrUrArGrArUrGrUdTdT / antisense rArCrArUrCrUrArGrArCrArCrArCrArGrUrUrCdCdT”, in the series with UBE2H, the normalised inhibition (eCFP-eYFP dual reporter) stood at 98.4%. On the same count and under the same terms, the value for “sense rArGrUrGrArArGrUrUrUrUrArUrGrGrArCrCrAdTdT / antisense rUrGrGrUrCrCrArUrArArArArCrUrUrCrArCrUdAdC” was 95.5%. As for “sense rCrUrGrArUrCrUrGrArUrUrCrArGrArArGrGrGdTdT / antisense rCrCrCrUrUrCrUrGrArArUrCrArGrArUrCrArGdGdG”, the normalised inhibition (eCFP-eYFP dual reporter) in the series with UFC1 was determined as 73.2%. The same measure, in the same setting: the value for “sense rUrGrArCrArUrUrCrCrUrArUrCrArCrArUrArUdTdT / antisense rArUrArUrGrUrGrArUrArGrGrArArUrGrUrCrAdAdA” was 115%; that for “sense rArCrCrUrUrUrGrUrGrGrGrCrCrArGrGrArArUdTdT / antisense rArUrUrCrCrUrGrGrCrCrCrArCrArArArGrGrUdTdT” was 56.9%.

For “sense rArGrUrUrUrGrArCrArUrCrGrArGrUrUrUrGrAdTdT / antisense rUrCrArArArCrUrCrGrArUrGrUrCrArArArCrUdCdA”, the normalised inhibition (eCFP-eYFP dual reporter) with UFC1 stood at 122%.

Turning to “sense rUrGrArArArUrArUrGrArGrUrUrUrGrArCrArUdTdT / antisense rArUrGrUrCrArArArCrUrCrArUrArUrUrUrCrAdGdG”, the normalised inhibition (eCFP-eYFP dual reporter) with UFC1 worked out at 75.3%. Still for that read-out and setting: as for “sense rArUrArUrCrCrUrArCrUrArCrUrGrCrCrCrCrAdTdT / antisense rUrGrGrGrGrCrArGrUrArGrUrArGrGrArUrArUdGdT”, the figure is 78.2%; as for “sense rCrUrUrArUrCrCrGrGrUrArUrGrUrGrGrArGrAdTdT / antisense rUrCrUrCrCrArCrArUrArCrCrGrGrArUrArArGdGdG”, 78.4%; as for “sense rArCrCrUrCrCrUrGrArArArUrArUrGrArGrUrUdTdT / antisense rArArCrUrCrArUrArUrUrUrCrArGrGrArGrGrUdCdA”, 43.5%.

With “sense rGrCrArArArGrArUrGrUrArCrArGrGrGrGrUrGdTdT / antisense rCrArCrCrCrCrUrGrUrArCrArUrCrUrUrUrGrCdTdG”, the normalised inhibition (eCFP-eYFP dual reporter) in the series with UFC1 was 108%. The same measure, in the same setting: the value for “sense rGrArArArUrArUrGrArGrUrUrUrGrArCrArUrCdTdT / antisense rGrArUrGrUrCrArArArCrUrCrArUrArUrUrUrCdAdG” was 66.9%. Turning to “sense rArUrCrCrArArCrArCrArArArGrArGrArArArUdTdT / antisense rArUrUrUrCrUrCrUrUrUrGrUrGrUrUrGrGrArUdGdA”, in the series with UFC1, the normalised inhibition (eCFP-eYFP dual reporter) was 69.1%. Consider “sense rArArGrArUrGrUrArCrArGrGrGrGrUrGrGrCrAdTdT / antisense rUrGrCrCrArCrCrCrCrUrGrUrArCrArUrCrUrUdTdG”, for which the normalised inhibition (eCFP-eYFP dual reporter) in the series with UFC1 was 62.3%.

Take “sense rGrArArCrUrCrGrGrUrGrGrUrUrUrGrGrArArAdTdT / antisense rUrUrUrCrCrArArArCrCrArCrCrGrArGrUrUrCdCdT”: in the series with UFC1, the normalised inhibition (eCFP-eYFP dual reporter) stood at 97.7%. As to “sense rArGrUrCrCrArArCrArArGrGrArArGrGrArArCdTdT / antisense rGrUrUrCrCrUrUrCrCrUrUrGrUrUrGrGrArCrUdCdC”, in the series with UFC1, the normalised inhibition (eCFP-eYFP dual reporter) was determined as 83.5%.
